In patent US12643871B2, “Aryl formamide compound containing chiral sulfur oxide or salt thereof, preparation method, herbicidal composition and use thereof” (Qingdao Kingagroot Chemical Compound Co., Ltd., priority 2019, dated 2026):

Tests used:
Assay in all cases: Weeding effect in post-emergence stage
Type in all cases: in vivo
Settings in all cases: 250 g/ha; 2 leaf stage; 15 days after application; fresh weight control rate
Digitaria sanguinalis = test system: Digitaria sanguinalis
Outline: (§1)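 Post-emergence spray, 2-leaf stage; doses 500–15 g/ha; acetone + Tween 80 + methyl oleate EC (1.5 L/ha) as synergist. Greenhouse 15 d. Readout: fresh weight control rate graded levels 0–5 (5 = above 85%, 0 = below 5%); triplicate means.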

Echinochloa crusgali = test system: Echinochloa crusgali
Outline: as §1

Setaria viridis = test system: Setaria viridis
Outline: as §1

Abutilon theophrasti = test system: Abutilon theophrasti
Outline: as §1

Amaranthus retroflexus = test system: Amaranthus retroflexus
Outline: as §1

Structure (SMILES) | weeding effect in post-emergence stage, activity level (growth control rate), Digitaria sanguinalis (Digitaria sanguinalis) | weeding effect in post-emergence stage, activity level (growth control rate), Echinochloa crusgali (Echinochloa crusgali) | weeding effect in post-emergence stage, activity level (growth control rate), Setaria viridis (Setaria viridis) | weeding effect in post-emergence stage, activity level (growth control rate), Abutilon theophrasti (Abutilon theophrasti) | weeding effect in post-emergence stage, activity level (growth control rate), Amaranthus retroflexus (Amaranthus retroflexus)
COc1c(C(=O)Nc2nnc(C)o2)ccc(C(F)(F)F)c1[S@+]([O-])CCC(F)(C(F)(F)F)C(F)(F)F [Compound 331] | 5 (Level 5: growth control rate is above 85%) | 5 (Level 5: growth control rate is above 85%) | 5 (Level 5: growth control rate is above 85%) | 5 (Level 5: growth control rate is above 85%) | 5 (Level 5: growth control rate is above 85%)
COc1c(C(=O)Nc2nnc(C)o2)ccc(C(F)(F)F)c1[S@+]([O-])CCCl [Compound 332] | 5 (Level 5: growth control rate is above 85%) | 5 (Level 5: growth control rate is above 85%) | 5 (Level 5: growth control rate is above 85%) | 5 (Level 5: growth control rate is above 85%) | 5 (Level 5: growth control rate is above 85%)
COc1c(C(=O)Nc2nnc(C)o2)ccc(C(F)(F)F)c1[S@+]([O-])CCCCl [Compound 333] | 5 (Level 5: growth control rate is above 85%) | 5 (Level 5: growth control rate is above 85%) | 5 (Level 5: growth control rate is above 85%) | 5 (Level 5: growth control rate is above 85%) | 5 (Level 5: growth control rate is above 85%)
COc1c(C(=O)Nc2nnc(C)o2)ccc(C(F)(F)F)c1[S@+]([O-])CCO [Compound 334] | 5 (Level 5: growth control rate is above 85%) | 5 (Level 5: growth control rate is above 85%) | 5 (Level 5: growth control rate is above 85%) | 5 (Level 5: growth control rate is above 85%) | 5 (Level 5: growth control rate is above 85%)
COc1c(C(=O)Nc2nnc(C)o2)ccc(C(F)(F)F)c1[S@+]([O-])CCCO [Compound 335] | 5 (Level 5: growth control rate is above 85%) | 5 (Level 5: growth control rate is above 85%) | 5 (Level 5: growth control rate is above 85%) | 5 (Level 5: growth control rate is above 85%) | 5 (Level 5: growth control rate is above 85%)
COc1c(C(=O)Nc2nnc(C)o2)ccc(C(F)(F)F)c1[S@+]([O-])CC(C)O (some centres unmarked) [Compound 336] | 5 (Level 5: growth control rate is above 85%) | 5 (Level 5: growth control rate is above 85%) | 5 (Level 5: growth control rate is above 85%) | 5 (Level 5: growth control rate is above 85%) | 5 (Level 5: growth control rate is above 85%)
COc1c(C(=O)Nc2nnc(C)o2)ccc(C(F)(F)F)c1[S@+]([O-])CC#N [Compound 337] | 5 (Level 5: growth control rate is above 85%) | 5 (Level 5: growth control rate is above 85%) | 5 (Level 5: growth control rate is above 85%) | 5 (Level 5: growth control rate is above 85%) | 5 (Level 5: growth control rate is above 85%)
COc1c(C(=O)Nc2nnc(C)o2)ccc(C(F)(F)F)c1[S@+]([O-])CCC#N [Compound 338] | 5 (Level 5: growth control rate is above 85%) | 5 (Level 5: growth control rate is above 85%) | 5 (Level 5: growth control rate is above 85%) | 5 (Level 5: growth control rate is above 85%) | 5 (Level 5: growth control rate is above 85%)
COc1c(C(=O)Nc2nnc(C)o2)ccc(C(F)(F)F)c1[S@+]([O-])CCCN [Compound 339] | 5 (Level 5: growth control rate is above 85%) | 5 (Level 5: growth control rate is above 85%) | 5 (Level 5: growth control rate is above 85%) | 5 (Level 5: growth control rate is above 85%) | 5 (Level 5: growth control rate is above 85%)
COc1c(C(=O)Nc2nnc(C)o2)ccc(C(F)(F)F)c1[S@+]([O-])CCN(C)C [Compound 340] | 5 (Level 5: growth control rate is above 85%) | 5 (Level 5: growth control rate is above 85%) | 5 (Level 5: growth control rate is above 85%) | 5 (Level 5: growth control rate is above 85%) | 5 (Level 5: growth control rate is above 85%)
COc1c(C(=O)Nc2nnc(C)o2)ccc(C(F)(F)F)c1[S@+]([O-])CC(=O)O [Compound 341] | 5 (Level 5: growth control rate is above 85%) | 5 (Level 5: growth control rate is above 85%) | 5 (Level 5: growth control rate is above 85%) | 5 (Level 5: growth control rate is above 85%) | 5 (Level 5: growth control rate is above 85%)
COC[S@+]([O-])c1c(C(F)(F)F)ccc(C(=O)Nc2nnc(C)o2)c1OC [Compound 342] | 5 (Level 5: growth control rate is above 85%) | 5 (Level 5: growth control rate is above 85%) | 5 (Level 5: growth control rate is above 85%) | 5 (Level 5: growth control rate is above 85%) | 5 (Level 5: growth control rate is above 85%)
CCOC[S@+]([O-])c1c(C(F)(F)F)ccc(C(=O)Nc2nnc(C)o2)c1OC [Compound 343] | 5 (Level 5: growth control rate is above 85%) | 5 (Level 5: growth control rate is above 85%) | 5 (Level 5: growth control rate is above 85%) | 5 (Level 5: growth control rate is above 85%) | 5 (Level 5: growth control rate is above 85%)
COCC[S@@+]([O-])c1c(C(F)(F)F)ccc(C(=O)Nc2nnc(C)o2)c1OC [Compound 344] | 5 (Level 5: growth control rate is above 85%) | 5 (Level 5: growth control rate is above 85%) | 5 (Level 5: growth control rate is above 85%) | 5 (Level 5: growth control rate is above 85%) | 5 (Level 5: growth control rate is above 85%)
COCCC[S@@+]([O-])c1c(C(F)(F)F)ccc(C(=O)Nc2nnc(C)o2)c1OC [Compound 345] | 5 (Level 5: growth control rate is above 85%) | 5 (Level 5: growth control rate is above 85%) | 5 (Level 5: growth control rate is above 85%) | 5 (Level 5: growth control rate is above 85%) | 5 (Level 5: growth control rate is above 85%)
COc1c(C(=O)Nc2nnc(C)o2)ccc(C(F)(F)F)c1[S@+]([O-])C1COC1 [Compound 346] | 5 (Level 5: growth control rate is above 85%) | 5 (Level 5: growth control rate is above 85%) | 5 (Level 5: growth control rate is above 85%) | 5 (Level 5: growth control rate is above 85%) | 5 (Level 5: growth control rate is above 85%)
